Assay results taken from patent publication US10449183B2, “Methods for inhibiting preterm labor and uterine contractility disorders and preventing cervical ripening” (DIGNITY HEALTH, priority 2010, dated 2019).
“Also recorded” adds a separate entry of the source. Like-named read-outs stand apart in the source and are kept apart here.

What was measured:
cervix of pregnant rats = test: Cervical ripening assessed in vivo by collagen light-induced fluorescence (LIF) with the collascope; design: species or system Sprague-Dawley rats
Excerpt: Nonpregnant and timed-pregnant Sprague-Dawley rats (200-250 g) from Charles-River Laboratories (Wilmington, Mass., USA) were delivered to animal care facilities on day 12 of gestation (day 1 being the day when a sperm plug was observed). The animals were housed separately, with free access to food and water and maintained on a constant 12-hour light-dark cycle. Control pregnant rats were spontaneously delivering on day 22 and 23 of gestation. For the measurements with the collascope the animals were anaesthetized (interperitoneal (i.p). injection) with a combination of xylazine (Gemini, Burns Veterinary Supply Inc, Rockville Center, N.Y., USA) and ketamine HCl (Ketaset; Fort Dodge Laboratories Inc, Fort Dodge, Iowa, USA). The animals were randomly allocated to one of the groups and sacrificed by carbon dioxide inhalation on day 3, 5, 7 and 10 postpartum or on day 25 of pregnancy in the groups with delayed delivery. All procedures were approved by the Animal Care and Use Committee of the St. Joseph's Hospital and Medical Center in Phoenix.
Prior to any treatment LIF measurements were made in control rats throughout pregnancy and postpartum to estimate the LIF profile during gestation (see FIG. 1). Pregnant rats (N=6/group) were treated (see FIG. 2), when not otherwise mentioned (see FIG. 3), from day 13 of pregnancy until delivery. Single daily treatments were performed at 8 a.m. and twice a day treatments at 8 a.m. and 8 p.m. All single injections (4 mg P4, 10 mg 17P, 2 mg promegestone (R5020)) were by the subcutaneous route (s.c.) in sesame oil (0.2 ml), which was also used for the controls. Vaginal gels were applied twice a day with a blunt ball-top needle deep into the vagina. Crinone was used for the P4 vaginal group (equivalent volumes of Crinone were used for 2-15 mg P4/treatment), all data presented show the results of the highest dose (total daily dose of 30 mg P4=⅓ of a applicator of 8% Crinone that contains 90 mg P4). For the vaginal promegestone (R5020) group micronized promegestone (R5020) (1 mg/treatment) was mixed into 0.18 ml of Replens. The control rats for the vaginal groups were treated with Replens (0.18 ml/treatment). For oral P4 treatments (15 mg, bid, vehicle sesame oil or H2O, volume 1 ml) gavage was used. For topical P4 treatment (15 mg, bid, P4 in 1 ml sesame oil, fish oil or in Replens) the drug was applied on the back of animals that were shaved on day 13, 17 and 21. In some animals (N=6) RU-486 (3 mg in 0.2 ml sesame oil) was injected subcutaneously once on day 16 of gestation.
The amount of cervical collagen was evaluated in vivo (only in group subcutaneously P4, vaginal P4, subcutaneously 17P, vaginal promegestone (R5020), subcutaneously RU-486) by measurement of the auto-fluorescent properties of cross-linked collagen with a new prototype of an instrument, termed collascope (Reproductive Research Technologies, Houston, Tex., USA), as used previously with an earlier prototype.
After insertion of a small speculum into the vagina of the anesthetized animal, the optical probe of the collascope was placed on the surface of the exocervix. […] The exposure time for excitation was 100 msec. The average of 20 measurements of the detected fluorescent intensity (photon count) at 390 nm was used for each animal at any given time. Measurements of cervical light-induced fluorescence (LIF) were performed on nonpregnant animals once and in pregnant animals every other day starting at day 13 of gestation until delivery and on postpartum day 3 and/or postpartum day 5 (see FIGS. 2 and 3), and for some animals also on postpartum days 7 and 10 (see FIGS. 1 and 3).
The cervical LIFs obtained at different times of gestation (FIG. 1) were compared using one-way analysis of variance (ANOVA) and multiple pairwise comparison procedures (Holm-Sidak). […]

myometrium = conditions: P4 at concentrations equivalent to those present in the placenta and uterus; cited from earlier work
[1] = cited from earlier work
[2] = Plasma progesterone levels in pregnant rats after various treatments; format: in vivo
Experimental: FIG. 6 depicts plasma levels of progesterone following various treatments. Plasma progesterone (P4) levels in pregnant rats at day 18 and 21 days of gestation after treatment with P4 vaginal gel (15 mg bid), P4 injections (4 mg subcutaneous daily), topical P4 in fish oil (15 mg bid) and controls (Ctr) treated with vehicles. FIG. 24 depicts pharmokinetic data related to plasma serum levels after topical delivery in rats following various treatments on day 19 of gestation (single treatment only).

human myometrium = test: Human myometrial contractility in vitro (organ chamber / muscle bath); format: cell-based
Excerpt: The inventors tested whether a soluble form of progesterone would inhibit human myometrial contractility in vitro (FIG. 7). FIG. 7 is a schematic drawing of the muscle bath that is used to measure uterine contractility in vitro. The system consists of a water jacketed chamber to maintain temperature at 37 degrees and an inner chamber where the tissue is suspended in Krebs'-Ringer solution and bubbled with air. The tissue is connected to a force transducer and the signals from the transducer are amplified, stored and analyzed by a data acquisition system. The inventors examined the direct effects of various tocolytics on uterine contractility with and without progesterone, as it was possible that a tocolytic used with progesterone would produce additive, synergistic or antagonistic action on contractility.

[3] = single treatment only on day 19 of gestation

SMILES: CC(=O)[C@H]1CC[C@H]2[C@@H]3CCC4=CC(=O)CC[C@]4(C)[C@H]3CC[C@]12C [P4, progesterone]
- cervical LIF, day 25 (delayed delivery) in P4 injection group compared to control animals at day 21 (cervix of pregnant rats; P4 4 mg s.c. daily from day 13): no difference (P<0.05)
- cervical LIF / cervical ripening compared with vehicle controls (cervix of pregnant rats; P4 4 mg s.c. daily in sesame oil from day 13 of pregnancy): cervix is rigid; also recorded: significantly (P<0.05) higher; also recorded: longest effect on delaying cervical ripening; also recorded: also prevents further ripening on day 21; also recorded: can only delay, but not completely inhibit cervical ripening; also recorded: delayed but not entirely blocked during the final days of gestation
- cervical LIF / cervical ripening compared with vehicle controls (cervix of pregnant rats; vaginal P4 15 mg bid (Crinone) from day 13): no significant differences (P>0.05); also recorded: no effect on cervical ripening; also recorded: no significant differences are observed at any time
- spontaneous myometrial contractility (myometrium): inhibits spontaneous myometrial contractility
- half life ([1]; background statement): roughly 32 hours
- half life ([1]; statement under advantages): about 30 minutes
- plasma circulation levels of progesterone, topical compared to vaginal or subcutaneous injection ([2]; day 21, topical P4 in fish oil 15 mg bid vs vaginal gel 15 mg bid or 4 mg s.c. daily): highly effective in increasing plasma circulation levels of progesterone
- persistence of raised plasma levels following administration ([2]; single topical treatment on day 19 of gestation): persist for 1, 2, or more days
- plasma levels after topical delivery [2, 3]: increase markedly
- plasma levels after topical delivery compared with subcutaneous injection [2, 3]: even higher than subcutaneous injection
- effect on human myometrial contractions (human myometrium; 10^−4M progesterone): inhibited myometrial contractions
- contractile inhibition of the combination (human myometrium; P4 (10^-5 M) with indomethacin (IND), term, not in labor): increase contractile inhibition, by additive or synergistic actions
- contractile inhibition of the combination (human myometrium; P4 (10^-5 M) with nifedipine (Nife), term, not in labor): increase contractile inhibition, by additive or synergistic actions
- effect on pinacidil inhibition of contractility (human myometrium; P4 (10^−5M) with pinacidil (10^−6.5M), term, not in labor): decreases pinacidil inhibition of contractility
- effect on myometrial contractility (human myometrium; P4 soluble and crystalline in ETOH): inhibits myometrial contractility
